Laboratory results taken from patent US20240174723A1, “STAPLED ANTIMICROBIAL PEPTIDES (STAMPS) AND USES THEREOF” (Lytica Therapeutics, Inc., priority 2021, published 2024).
Values after ≈ are worked out from the molar mass of the structure shown. Positions of bridges follow the written chain, without caps; N, C: chain ends. Non-standard residues stand in square brackets, D forms with d. Residues, ends and D or L forms follow the SMILES beside them. S5 = C=CCCC[C@](C)(N)C(=O)O

Experiments:
in vitro [1] = format: cell-based; conditions: human, Inhibitory Concentration at 50% Cytotoxicity (IC50) Human Liver Cells (HepG2)
In short: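 HepG2 cells in EMEM with 10% FBS, allowed 4 h to attach, then exposed to serial dilutions of StAMPs (from a 5 mg/mL water stock) or vehicle. After 48 h at 37 °C, viability read by CellTiter-Glo luminescence.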

A. baumannii = format: cell-based, Acinetobacter baumannii
In short: (§1)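 Minimum inhibitory concentrations of stapled peptides were determined by a microbroth dilution method derived from CLSI, using a final inoculum of 5×10^5 CFU/ml and 20-24 h incubation at 37 °C.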

K. pneumoniae = format: cell-based, Klebsiella pneumoniae
In short: as §1

S. aureus = format: cell-based, Staphylococcus aureus
In short: as §1

E. coli = format: cell-based, Escherichia coli
In short: as §1

P. aeruginosa = format: cell-based, Pseudomonas aeruginosa
In short: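 Broth microdilution adapted from CLSI in MHB or cation-adjusted MHB; log-phase P. aeruginosa at 5×10^5 CFU/ml final with serially diluted stapled peptides. Incubated 20-24 h at 37 °C; MIC is the lowest concentration without visible growth.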

in vitro [2] = format: cell-based; conditions: human
Protocol: Cell culture: RPTEC were maintained in MEM media supplemented with growth factors. HEPG2 cell line was maintained in Eagle's Minimum Essential Medium (EMEM) supplemented with fetal bovine serum to a final concentration of 10%.
90 minute cytotoxicity assay: Cells were plated in a 96-well format, and after overnight incubation, media was replaced with fresh media. Serial dilutions of StAMPs from a 5 mg/mL water stock, or vehicle, were added to the cells in a final volume of 100 μl. After incubating at 37° C. for 90 min, 50 μl of cell culture media was transferred to a clear 96-well plate, incubated with 50 μl of lactate dehydrogenase (LDH) assay reagent for 10 min, and absorbance measured at 490 nm on a microplate reader.
Renal toxicity was measured after 90 minutes of incubation, while liver toxicity was measured after 48 hours of incubation with StAMPs. N/A=not tested. The following apply to all peptides (i.e., StAMPs) listed in Tables A-C: Crosslinks (X^1—X^2 and X^3—X^4): (alk); N-terminus: —NH2; C-terminus: amidated with —NH2; counterion: Cl^−. The following apply to all peptides (i.e., StAMPs) listed in Table D: Crosslinks (X^1—X^2 and X^3—X^4): (alk); N-terminus: —NH2; C-terminus: as shown in table; counterion: Cl^−.
StAMP Micelle Formulation: DSPE-MPEG(2000) was suspended in buffered saline at 50-100 mg/mL overnight. StAMP stock solutions at 5-20 mg/mL in buffered saline were prepared and equal volumes of micelle and StAMP stock solution were mixed at the desired StAMP:Lipid ratio. Suspensions were allowed to sit for 5-10 minutes at room temperature before being used in in vitro and in vivo assays.
In Table E, the StAMP is StAMP 4 (Table A) and “Lipid”=DSPE-MPEG(2000).

| Minimum Inhibitory Concentration (MIC) A. baumannii (A. baumannii) [µg/mL] | Minimum Inhibitory Concentration (MIC) K. pneumoniae (K. pneumoniae) [µg/mL] | Minimum Inhibitory Concentration (MIC) S. aureus (S. aureus) [µg/mL] | Minimum Inhibitory Concentration (MIC) E. coli (E. coli) [µg/mL] | Minimum Inhibitory Concentration (MIC) P. aeruginosa (P. aeruginosa) [µg/mL] | IC50 at 90 min (in vitro [2]) [µg/mL] | SMILES | IC50 at 48 hours (in vitro [1]) [µg/mL] |
| --- | --- | --- | --- | --- | --- | --- | --- |
| 4 | >64 | >64 | 8 | 16 | 78 (≈ 29.3 µM) | CC(C)[C@@H]1NC(=O)[C@@](C)(NC(=O)[C@H](C)NC(=O)[C@H](CCCCN)NC(=O)CNC(=O)[C@H](Cc2ccccc2)NC(=O)[C@H](CCCCN)NC(=O)[C@H](CCCCN)NC(=O)[C@H](CCCCN)NC(=O)[C@H](CO)NC(=O)[C@H](Cc2c[nH]cn2)NC(=O)[C@]2(C)CCCC=CCCC[C@](C)(NC(=O)[C@@H](N)Cc3c[nH]c4ccccc34)C(=O)NCC(=O)N[C@@H](CCCCN)C(=O)N[C@@H](Cc3ccccc3)C(=O)N2)CCCC=CCCC[C@@](C)(C(=O)N[C@@H](C)C(=O)N[C@@H](CCCCN)C(=O)N[C@@H](CCCCN)C(N)=O)NC(=O)[C@H](CCC(=O)O)NC(=O)CNC1=O [compound 56] (H-W[S5]GKF[S5]HSKKKFGKA[S5]VGE[S5]AKK-NH2; staple 2-6, 16-20) | 200 (≈ 75.2 µM) |
| 4 | 8 | >64 | 4 | 4 | ~200 (≈ 70.2 µM) | CC(C)[C@@H]1NC(=O)[C@H](C(C)C)NC(=O)[C@@](C)(NC(=O)[C@H](C)NC(=O)[C@H](CCCCN)NC(=O)CNC(=O)[C@H](Cc2ccccc2)NC(=O)[C@H](CCCCN)NC(=O)[C@H](CCCCN)NC(=O)[C@H](CCCCN)NC(=O)[C@H](CCCCN)NC(=O)[C@H](CCCCN)NC(=O)[C@]2(C)CCCC=CCCC[C@](C)(NC(=O)CN)C(=O)NCC(=O)N[C@@H](CCCCN)C(=O)N[C@@H](Cc3ccccc3)C(=O)N2)CCCC=CCCC[C@@](C)(C(=O)N[C@@H](C)C(=O)N[C@@H](CCCCN)C(=O)N[C@@H](CCCCN)C(=O)NCC(=O)NCC(=O)N[C@@H](CCC(=O)O)C(N)=O)NC(=O)[C@H](CCC(=O)O)NC1=O [compound 32] (H-G[S5]GKF[S5]KKKKKFGKA[S5]VVE[S5]AKKGGE-NH2; staple 2-6, 16-20) | > 200 |
| 4 | 16 | 32 | 4 | 8 | 35 (≈ 13.2 µM) | CC(C)[C@@H]1NC(=O)[C@@](C)(NC(=O)[C@H](C)NC(=O)[C@H](CCCCN)NC(=O)CNC(=O)[C@H](Cc2ccccc2)NC(=O)[C@H](CCCCN)NC(=O)[C@H](CCCCN)NC(=O)[C@H](CCCCN)NC(=O)[C@H](CO)NC(=O)[C@H](Cc2c[nH]cn2)NC(=O)[C@]2(C)CCCC=CCCC[C@](C)(NC(=O)CN)C(=O)N[C@@H](Cc3c[nH]c4ccccc34)C(=O)N[C@@H](CCCCN)C(=O)N[C@@H](Cc3ccccc3)C(=O)N2)CCCC=CCCC[C@@](C)(C(=O)N[C@@H](C)C(=O)N[C@@H](CCCCN)C(=O)N[C@@H](CCCCN)C(N)=O)NC(=O)[C@H](CCC(=O)O)NC(=O)CNC1=O [compound 57] (H-G[S5]WKF[S5]HSKKKFGKA[S5]VGE[S5]AKK-NH2; staple 2-6, 16-20) | 70 (≈ 26.3 µM) |
| 4 | >64 | >64 | 12 | 16 | > 200 | CC(C)[C@@H]1NC(=O)[C@@](C)(NC(=O)[C@H](C)NC(=O)[C@H](CCCCN)NC(=O)CNC(=O)[C@H](Cc2ccccc2)NC(=O)[C@H](CCCCN)NC(=O)[C@H](CCCCN)NC(=O)[C@H](CCCCN)NC(=O)[C@H](CO)NC(=O)[C@H](Cc2c[nH]cn2)NC(=O)[C@]2(C)CCCC=CCCC[C@](C)(NC(=O)CN)C(=O)NCC(=O)N[C@@H](CCCCN)C(=O)N[C@@H](Cc3ccccc3)C(=O)N2)CCCC=CCCC[C@@](C)(C(=O)N[C@@H](C)C(=O)N[C@@H](CCCCN)C(=O)N[C@@H](CCCCN)C(N)=O)NC(=O)[C@H](CC(=O)O)NC(=O)CNC1=O [compound 16] (H-G[S5]GKF[S5]HSKKKFGKA[S5]VGD[S5]AKK-NH2; staple 2-6, 16-20) | > 200 |

The next lines start with the compound.

| SMILES | Minimum Inhibitory Concentration (MIC) A. baumannii (A. baumannii) [µg/mL] | Minimum Inhibitory Concentration (MIC) K. pneumoniae (K. pneumoniae) [µg/mL] | Minimum Inhibitory Concentration (MIC) S. aureus (S. aureus) [µg/mL] | Minimum Inhibitory Concentration (MIC) E. coli (E. coli) [µg/mL] | Minimum Inhibitory Concentration (MIC) P. aeruginosa (P. aeruginosa) [µg/mL] | IC50 at 90 min (in vitro [2]) [µg/mL] | IC50 at 48 hours (in vitro [1]) [µg/mL] |
| --- | --- | --- | --- | --- | --- | --- | --- |
| CC(C)[C@@H]1NC(=O)[C@@](C)(NC(=O)[C@H](C)NC(=O)[C@H](CCCCN)NC(=O)CNC(=O)[C@H](Cc2ccccc2)NC(=O)[C@H](CCCCN)NC(=O)[C@H](CCCCN)NC(=O)[C@H](CCCCN)NC(=O)[C@H](CO)NC(=O)[C@H](CCCCN)NC(=O)[C@]2(C)CCCC=CCCC[C@](C)(NC(=O)CN)C(=O)NCC(=O)N[C@@H](CCCCN)C(=O)N[C@@H](Cc3ccccc3)C(=O)N2)CCCC=CCCC[C@@](C)(C(=O)N[C@@H](C)C(=O)N[C@@H](CCCCN)C(=O)N[C@@H](CCCCN)C(N)=O)NC(=O)[C@H](CCC(=O)O)NC(=O)CNC1=O [compound 2] (H-G[S5]GKF[S5]KSKKKFGKA[S5]VGE[S5]AKK-NH2; staple 2-6, 16-20) | 2 | 4 | 64 | 2 | 4 | 116 (≈ 46 µM) | 143 (≈ 56.7 µM) |
| CC(C)[C@@H]1NC(=O)[C@@](C)(NC(=O)[C@H](C)NC(=O)[C@H](CCCCN)NC(=O)CNC(=O)[C@H](Cc2ccccc2)NC(=O)[C@H](CCCCN)NC(=O)[C@H](CCCCN)NC(=O)[C@H](CCCCN)NC(=O)[C@@H](NC(=O)[C@H](Cc2c[nH]cn2)NC(=O)[C@]2(C)CCCC=CCCC[C@](C)(NC(=O)CN)C(=O)NCC(=O)N[C@@H](CCCCN)C(=O)N[C@@H](Cc3ccccc3)C(=O)N2)[C@@H](C)O)CCCC=CCCC[C@@](C)(C(=O)N[C@@H](C)C(=O)N[C@@H](CCCCN)C(=O)N[C@@H](CCCCN)C(N)=O)NC(=O)[C@H](CCC(=O)O)NC(=O)CNC1=O [compound 8] (H-G[S5]GKF[S5]HTKKKFGKA[S5]VGE[S5]AKK-NH2; staple 2-6, 16-20) | 4 | >64 | >64 | 8 | 8 | > 200 | > 200 |
| CC(C)[C@@H]1NC(=O)[C@@](C)(NC(=O)[C@H](C)NC(=O)[C@H](CCCCN)NC(=O)CNC(=O)[C@H](Cc2ccccc2)NC(=O)[C@H](CCCCN)NC(=O)[C@H](CCCCN)NC(=O)[C@H](CCCCN)NC(=O)[C@H](CC(N)=O)NC(=O)[C@H](Cc2c[nH]cn2)NC(=O)[C@]2(C)CCCC=CCCC[C@](C)(NC(=O)CN)C(=O)NCC(=O)N[C@@H](CCCCN)C(=O)N[C@@H](Cc3ccccc3)C(=O)N2)CCCC=CCCC[C@@](C)(C(=O)N[C@@H](C)C(=O)N[C@@H](CCCCN)C(=O)N[C@@H](CCCCN)C(N)=O)NC(=O)[C@H](CCC(=O)O)NC(=O)CNC1=O [compound 6] (H-G[S5]GKF[S5]HNKKKFGKA[S5]VGE[S5]AKK-NH2; staple 2-6, 16-20) | 4 | >64 | >64 | 4 | 8 | > 200 | > 200 |
